# According to patent US20260250293A1, “ULODESINE SALT” (Laevoroc Immunology AG, priority 2021, published 2026):
# Like-named read-outs stand apart in the source and are kept apart here.
# How the values were obtained:
# Assay type in all cases: physicochemical
# [1] = Thermodynamic solubility study in water, SGF, FaSSIF and FeSSIF; details: for XRPD of residual solid: after 24 hrs solubility study
# Description: Then all the samples were vortex for 30 s to disperse homogenously and placed into a constant temperature shaking incubator at 37° C. with 200 rpm for 24 hrs. If the API dissolved, more material will be added to keep suspension state. The concentration, XRPD and pH were tested at desired time points.
# [2] = Solid state stability study; details: for Purity(%): HPLC
# Description: (closed) and 40° C./75% RH (open) conditions during 2 weeks. […] At 0, 1 week and 2 weeks' time points, the corresponding samples will be sampled for purity determination by HPLC to assess the chemical stability. Also, one more sample was prepared under corresponding condition for appearance and XRPD test to evaluate the physical stability.
# [3] = Dynamic vapour sorption (DVS); details: for DVS hygroscopicity / DVS water uptake: 25° C.
# Description: The moisture sorption profile was generated at 25° C. using a DVS moisture balance flow system (Model Advantage 1.0) with the following conditions: sample size approximately 10 mg, drying 25° C. for 60 minutes, adsorption range 0% to 95% RH, desorption range 95% to 0% RH, and step interval 5%. The equilibrium criterion was <0.01% weight change in 5 minutes for a maximum of 120 minutes.
# [4] = Aqueous formulation stability; details: for formulation stability: in water at 0.1 mg/ml (calculated by freebase), room temperature, 14 days
# Description: The sample condition was maintained at 21-25° C. and protected from light.
# Duplicate samples were prepared by transfer 4 ml solution into an 8 mL glass bottle and all the samples were placed in dark under room temperature. At desired time points of 0, 3, 7, 10 and 14 days, the sample concentration was analysed by HPLC and the pH value was measured.
# [5] = solubility sample in FaSSIF(pH 6.5)
# [6] = solubility sample in FeSSIF(pH 5)
# [7] = solubility sample in SGF(pH 1.2)
# [8] = 40° C./75% RH open, 2 weeks, listed as Ulodesine Hemi L-glutarate
# [9] = listed as Ulodesine hemi-L-glutarate
# [10] = 40° C./75% RH open, 2 weeks, listed as Ulodesine Hemi succinate
# [11] = 60° C. close, 2 weeks, listed as Ulodesine Hemi succinate
Compound,"pH value at 24 hrs [1, 5]","pH value at 24 hrs [1, 6]","pH value at 24 hrs [1, 7]",pH value at 24 hrs ([1]; solubility sample in water),TRS(%) (=100% − purity %) ([2]; 0 d),Purity(%) ([2]; 0 d),"TRS Change(%) (Compared to 0 d) ([2]; 40° C./75% RH open, 1 week)","TRS(%) (=100% − purity %) ([2]; 40° C./75% RH open, 1 week)","Purity(%) ([2]; 40° C./75% RH open, 1 week)","Purity(%) ([2]; 40° C./75% RH open, 2 weeks)","TRS Change(%) (Compared to 0 d) ([2]; 60° C. close, 1 week)","TRS(%) (=100% − purity %) ([2]; 60° C. close, 1 week)","Purity(%) ([2]; 60° C. close, 1 week)","TRS Change(%) (Compared to 0 d) ([2]; 60° C. close, 2 weeks)","Purity(%) ([2]; 60° C. close, 2 weeks)",XRPD pre and post DVS [3],DVS hygroscopicity [3],DVS water uptake ([3]; at 80% RH),DVS water uptake ([3]; at 95% RH) [% at 95% RH)],further results
O=c1nc[nH]c2c(CN3C[C@H](CO)[C@@H](O)C3)c[nH]c12 [Ulodesine hemi L-glutarate],7.72,7.78,7.75,7.58,0.60,99.403,−0.12,0.48,99.524,99.600,0.15,0.74,99.258,0.42% TRS,98.984,No change,Moderately hygroscopic,(2.53% at 80% RH;,27.06,"XRPD of residual solid ([1]; FaSSIF(pH 6.5)): changed compared to initial solid form; XRPD of residual solid ([1]; FeSSIF(pH 5)): changed compared to initial solid form; XRPD of residual solid ([1]; water): changed compared to initial solid form; degradation (related substance increase) ([2]; 40° C./75% RH condition, during 2 weeks): no related substance increased; TRS Change(%) (Compared to 0 d) [2, 8]: −0.20%; TRS(%) (=100% − purity %) [2, 8]: 0.40%; TRS Change(%) (Compared to 0 d) ([2]; 60° C. close, 2 weeks, listed as Ulodesine Hemi L-glutarate): 0.42%; appearance and XRPD (polymorph) change ([2]; during 2 weeks under 60° C. and 40° C./75% RH conditions): no appearance and polymorph change; chemical stability based on the purity result ([2]; under 40° C./75% RH condition): more chemically stable than Ulodesine Hemi succinate; DVS hygroscopicity [3, 9]: moderately hygroscopic; DVS water uptake ([3]; at 80% RH, listed as Ulodesine hemi-L-glutarate): 2.53%; XRPD pre and post DVS [3, 9]: no change; change of appearance, concentration and purity of solution ([4]; in water at 0.1 mg/ml (cal. by freebase), 14 days at room temperature, dark): no significant change; formulation stability [4]: physically and chemically stable for 14 days; formulation stability ([4]; listed as ulodesine hemi L-glutarate): good formulation stability"
O=c1nc[nH]c2c(CN3C[C@H](CO)[C@@H](O)C3)c[nH]c12 [Ulodesine hemi adipinate],6.40,6.09,5.60,6.56,–,–,–,–,–,–,–,–,–,–,–,No change,Moderately hygroscopic,(3.68% at 80% RH;,15.80,–
"O=c1nc[nH]c2c(CN3C[C@H](CO)[C@@H](O)C3)c[nH]c12 [Ulodesine hemi succinate, reference compound]",6.16,5.75,5.32,6.34,0.06,99.942,0.33,0.39,99.613,99.782,0.13,0.18,99.816,0.34% TRS increased at,99.601,No change,Moderately hygroscopic,(6.97% at 80% RH;,11.86,"TRS Change(%) (Compared to 0 d) ([2]; 40° C./75% RH open, 2 weeks): 0.16% TRS increased at; TRS Change(%) (Compared to 0 d) [2, 10]: 0.16%; TRS(%) (=100% − purity %) [2, 10]: 0.22%; TRS Change(%) (Compared to 0 d) [2, 11]: 0.34%; TRS(%) (=100% − purity %) [2, 11]: 0.40%"
